Reference: patent US20190256994A1, “Electrochemical Deposition of Elements in Aqueous Media” (LumiShield Technologies Incorporated, priority 2016, published 2019)

Type: physicochemical
Settings: 1 M aluminum aqueous solution

Row | Molecule | pH
1 | [Cl][Al]([Cl])[Cl] [AlCl3, Aluminum chloride] | 2.04

Settings: acid of the ligand; cited from earlier work

Row | Molecule | pKa in water
2 | O=S(=O)(O)C(F)(F)F [Triflate (TfO), Triflate] | -3.43
3 | O=S(=O)(NS(=O)(=O)C(F)(F)F)C(F)(F)F [bis(trifluoromethane) sulfonamide(Tf2N), bis(trifluoromethane) sulfonamide] | Too negative to measure
4 | Methanesulfonate [Methanesulfonate (MSO)] | -1.61
5 | Trifluoroacetate [Trifluoroacetate (TFA)] | 0.52
6 | p-Toluenesulfonate [p-Toluenesulfonate (p-TSA)] | -2.14
